Source: patent US10870832B2, “Use of small molecules to enhance MAFA expression in pancreatic endocrine cells” (Janssen Biotech, Inc., priority 2014, dated 2020)

Columns and labels:
Assay in all cases: Kinase profiling of R428
Type in all cases: biochemical
IKKβ(h) = IKKβ(h) (Homo sapiens, UniProt O14920); conditions: 100 μM ATP, lower number = more robust inhibition
Method: (§1) The efficiency of the AXL inhibitor R428 for targeting different kinases was assessed by Kinase Profiling Services using 100 μM ATP concentration (EMD Millipore). R428 was tested at 1 and 10 μM. Table IV lists the kinases profiled along with the efficiency in targeting the kinases with a lower number indicating a more robust inhibition of a particular kinase.

Plk3(h) = Plk3(h) (Homo sapiens, UniProt Q9H4B4); conditions: 100 μM ATP, lower number = more robust inhibition
Plk3(h), sequence (Q9H4B4 whole entry): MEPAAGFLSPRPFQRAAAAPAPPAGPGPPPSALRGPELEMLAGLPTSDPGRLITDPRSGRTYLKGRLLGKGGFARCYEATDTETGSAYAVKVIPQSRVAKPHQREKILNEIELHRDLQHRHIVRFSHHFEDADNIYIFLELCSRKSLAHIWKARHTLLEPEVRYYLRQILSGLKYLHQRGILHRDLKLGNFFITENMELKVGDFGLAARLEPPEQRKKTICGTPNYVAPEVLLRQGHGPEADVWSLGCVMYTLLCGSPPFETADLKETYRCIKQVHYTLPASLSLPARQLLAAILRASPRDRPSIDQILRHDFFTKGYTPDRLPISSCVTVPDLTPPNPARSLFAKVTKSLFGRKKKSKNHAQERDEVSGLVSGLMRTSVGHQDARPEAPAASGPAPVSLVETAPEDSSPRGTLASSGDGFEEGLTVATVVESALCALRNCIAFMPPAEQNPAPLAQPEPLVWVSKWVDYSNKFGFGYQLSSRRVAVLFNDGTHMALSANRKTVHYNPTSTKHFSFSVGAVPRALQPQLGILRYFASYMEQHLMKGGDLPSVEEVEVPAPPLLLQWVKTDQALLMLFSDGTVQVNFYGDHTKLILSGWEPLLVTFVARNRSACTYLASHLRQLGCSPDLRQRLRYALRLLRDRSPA
Method: as §1

IRAK4(h) = IRAK4(h) (Homo sapiens, UniProt Q9NWZ3); conditions: 100 μM ATP, lower number = more robust inhibition
IRAK4(h), sequence (Q9NWZ3 whole entry): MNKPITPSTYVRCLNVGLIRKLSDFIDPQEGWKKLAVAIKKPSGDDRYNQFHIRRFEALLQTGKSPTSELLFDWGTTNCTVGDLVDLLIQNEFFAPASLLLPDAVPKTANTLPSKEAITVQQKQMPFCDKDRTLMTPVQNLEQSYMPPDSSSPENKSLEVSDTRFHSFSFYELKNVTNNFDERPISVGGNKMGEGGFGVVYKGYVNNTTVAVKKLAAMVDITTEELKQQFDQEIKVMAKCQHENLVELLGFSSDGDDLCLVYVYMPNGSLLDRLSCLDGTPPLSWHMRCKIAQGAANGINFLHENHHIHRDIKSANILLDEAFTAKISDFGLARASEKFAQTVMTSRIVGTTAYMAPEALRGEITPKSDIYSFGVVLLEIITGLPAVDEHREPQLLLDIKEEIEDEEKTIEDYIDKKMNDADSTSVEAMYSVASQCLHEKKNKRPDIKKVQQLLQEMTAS
Method: as §1

Flt3(h) = molecular target: T1, Flt3(h) (Homo sapiens, UniProt P36888); conditions: for efficiency in targeting Flt3(h): 100 μM ATP, lower number = more robust inhibition
T1 sequence (P36888 27-993): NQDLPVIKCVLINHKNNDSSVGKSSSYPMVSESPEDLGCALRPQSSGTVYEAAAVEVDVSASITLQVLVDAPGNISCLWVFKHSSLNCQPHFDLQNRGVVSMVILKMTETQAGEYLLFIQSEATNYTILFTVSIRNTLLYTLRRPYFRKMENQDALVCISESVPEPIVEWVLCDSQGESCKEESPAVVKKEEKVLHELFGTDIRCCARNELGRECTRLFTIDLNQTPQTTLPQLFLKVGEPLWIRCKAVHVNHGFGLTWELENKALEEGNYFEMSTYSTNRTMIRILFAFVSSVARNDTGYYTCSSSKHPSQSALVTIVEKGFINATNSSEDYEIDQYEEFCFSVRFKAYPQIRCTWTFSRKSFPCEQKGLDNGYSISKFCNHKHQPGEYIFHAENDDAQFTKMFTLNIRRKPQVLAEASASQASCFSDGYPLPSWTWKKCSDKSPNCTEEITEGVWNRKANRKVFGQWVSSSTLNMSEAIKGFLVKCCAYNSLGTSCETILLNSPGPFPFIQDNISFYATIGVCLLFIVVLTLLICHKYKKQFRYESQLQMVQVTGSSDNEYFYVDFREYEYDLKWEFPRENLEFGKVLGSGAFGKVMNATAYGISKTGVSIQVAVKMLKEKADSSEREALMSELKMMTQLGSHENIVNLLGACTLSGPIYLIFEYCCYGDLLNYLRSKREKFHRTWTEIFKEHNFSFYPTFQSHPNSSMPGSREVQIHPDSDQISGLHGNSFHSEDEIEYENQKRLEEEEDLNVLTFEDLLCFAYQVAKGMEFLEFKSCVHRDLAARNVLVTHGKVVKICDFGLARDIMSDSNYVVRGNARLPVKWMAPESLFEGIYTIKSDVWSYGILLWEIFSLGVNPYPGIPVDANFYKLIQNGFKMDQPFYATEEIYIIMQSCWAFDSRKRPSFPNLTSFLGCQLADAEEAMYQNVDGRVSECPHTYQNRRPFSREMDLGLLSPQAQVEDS
Method: as §1

PKA(h) = PKA(h) (Homo sapiens, UniProt P17612); conditions: 100 μM ATP, lower number = more robust inhibition
Method: as §1

PDGFRβ(h) = PDGFRβ(h) (Homo sapiens, UniProt P09619); conditions: 100 μM ATP, lower number = more robust inhibition
Method: as §1

ZIPK(h) = ZIPK(h) (Homo sapiens, UniProt O43293); conditions: 100 μM ATP, lower number = more robust inhibition
ZIPK(h), sequence (O43293 whole entry): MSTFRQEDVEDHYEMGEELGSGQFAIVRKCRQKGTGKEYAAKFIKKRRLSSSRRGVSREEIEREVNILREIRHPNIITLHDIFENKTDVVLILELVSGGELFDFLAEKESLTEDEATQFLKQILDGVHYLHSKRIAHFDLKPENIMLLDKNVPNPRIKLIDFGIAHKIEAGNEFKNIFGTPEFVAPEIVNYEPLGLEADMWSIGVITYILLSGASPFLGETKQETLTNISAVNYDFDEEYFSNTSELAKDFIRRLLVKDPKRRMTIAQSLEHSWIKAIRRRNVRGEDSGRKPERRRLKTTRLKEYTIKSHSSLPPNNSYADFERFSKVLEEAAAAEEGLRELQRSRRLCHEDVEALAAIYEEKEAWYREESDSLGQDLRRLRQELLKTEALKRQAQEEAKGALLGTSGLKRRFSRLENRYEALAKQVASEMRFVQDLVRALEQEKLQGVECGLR
Method: as §1

ROCK-1(h) = ROCK-1(h) (Homo sapiens, UniProt Q13464); conditions: 100 μM ATP, lower number = more robust inhibition
ROCK-1(h), sequence (Q13464 whole entry): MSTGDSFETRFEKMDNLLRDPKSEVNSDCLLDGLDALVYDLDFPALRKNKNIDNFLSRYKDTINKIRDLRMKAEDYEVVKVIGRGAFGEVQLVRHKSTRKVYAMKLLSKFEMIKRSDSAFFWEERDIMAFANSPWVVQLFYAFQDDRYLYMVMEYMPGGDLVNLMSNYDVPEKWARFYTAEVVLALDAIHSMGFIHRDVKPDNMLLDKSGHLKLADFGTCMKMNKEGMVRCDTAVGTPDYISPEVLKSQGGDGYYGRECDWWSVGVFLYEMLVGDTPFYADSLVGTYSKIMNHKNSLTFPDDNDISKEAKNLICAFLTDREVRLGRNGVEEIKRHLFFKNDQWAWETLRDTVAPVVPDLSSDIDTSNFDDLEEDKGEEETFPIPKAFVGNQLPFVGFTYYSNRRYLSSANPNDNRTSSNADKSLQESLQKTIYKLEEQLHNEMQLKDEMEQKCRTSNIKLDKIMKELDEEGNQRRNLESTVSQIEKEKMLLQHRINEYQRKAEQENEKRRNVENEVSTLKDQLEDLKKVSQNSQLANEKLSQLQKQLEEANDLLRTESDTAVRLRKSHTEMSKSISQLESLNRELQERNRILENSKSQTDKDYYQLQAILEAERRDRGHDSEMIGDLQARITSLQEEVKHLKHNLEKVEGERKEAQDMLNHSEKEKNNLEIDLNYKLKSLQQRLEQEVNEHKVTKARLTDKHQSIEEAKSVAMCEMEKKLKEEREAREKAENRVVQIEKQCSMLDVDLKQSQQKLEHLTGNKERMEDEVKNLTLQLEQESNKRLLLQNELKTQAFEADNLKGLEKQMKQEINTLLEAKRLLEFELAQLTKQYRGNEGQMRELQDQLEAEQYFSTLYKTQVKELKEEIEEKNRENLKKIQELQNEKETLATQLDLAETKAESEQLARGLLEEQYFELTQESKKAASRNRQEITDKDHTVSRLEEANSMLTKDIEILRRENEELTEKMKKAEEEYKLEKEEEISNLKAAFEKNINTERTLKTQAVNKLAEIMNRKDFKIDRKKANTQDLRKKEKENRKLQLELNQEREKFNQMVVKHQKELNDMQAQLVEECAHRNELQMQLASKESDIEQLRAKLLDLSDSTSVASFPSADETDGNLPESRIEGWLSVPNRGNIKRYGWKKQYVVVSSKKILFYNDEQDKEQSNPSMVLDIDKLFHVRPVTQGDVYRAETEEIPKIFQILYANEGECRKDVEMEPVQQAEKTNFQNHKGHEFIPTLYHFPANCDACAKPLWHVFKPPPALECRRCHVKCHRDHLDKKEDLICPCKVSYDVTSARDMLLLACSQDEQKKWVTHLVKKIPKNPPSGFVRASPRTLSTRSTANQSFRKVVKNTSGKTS
Method: as §1

TrkC(h) = TrkC(h) (Homo sapiens, UniProt Q16288); conditions: 100 μM ATP, lower number = more robust inhibition
TrkC(h), sequence (Q16288 32-839): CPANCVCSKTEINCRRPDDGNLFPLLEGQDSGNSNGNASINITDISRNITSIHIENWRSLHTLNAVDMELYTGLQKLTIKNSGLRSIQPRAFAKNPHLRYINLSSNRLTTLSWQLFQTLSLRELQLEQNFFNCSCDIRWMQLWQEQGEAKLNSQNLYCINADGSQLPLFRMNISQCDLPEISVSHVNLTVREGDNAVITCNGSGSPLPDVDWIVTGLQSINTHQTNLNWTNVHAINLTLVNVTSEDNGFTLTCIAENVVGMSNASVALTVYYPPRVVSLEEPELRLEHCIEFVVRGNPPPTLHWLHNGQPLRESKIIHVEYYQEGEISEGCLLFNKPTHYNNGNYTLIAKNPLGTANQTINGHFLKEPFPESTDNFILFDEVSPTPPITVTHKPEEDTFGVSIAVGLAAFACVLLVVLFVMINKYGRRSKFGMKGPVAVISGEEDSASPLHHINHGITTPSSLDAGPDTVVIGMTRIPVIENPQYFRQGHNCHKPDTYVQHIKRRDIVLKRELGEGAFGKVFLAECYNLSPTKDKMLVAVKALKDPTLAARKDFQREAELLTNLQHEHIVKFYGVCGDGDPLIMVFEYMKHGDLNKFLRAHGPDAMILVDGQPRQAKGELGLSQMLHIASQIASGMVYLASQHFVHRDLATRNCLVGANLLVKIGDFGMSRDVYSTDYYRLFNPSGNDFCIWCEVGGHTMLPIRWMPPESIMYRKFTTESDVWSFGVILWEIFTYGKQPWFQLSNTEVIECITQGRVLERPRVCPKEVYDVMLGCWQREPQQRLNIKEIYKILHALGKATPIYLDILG
Method: as §1

PKBα(h) = PKBα(h) (Homo sapiens, UniProt P31749); conditions: 100 μM ATP, lower number = more robust inhibition, read-out: efficiency in targeting PKBα(h)
PKBα(h), sequence (P31749 whole entry): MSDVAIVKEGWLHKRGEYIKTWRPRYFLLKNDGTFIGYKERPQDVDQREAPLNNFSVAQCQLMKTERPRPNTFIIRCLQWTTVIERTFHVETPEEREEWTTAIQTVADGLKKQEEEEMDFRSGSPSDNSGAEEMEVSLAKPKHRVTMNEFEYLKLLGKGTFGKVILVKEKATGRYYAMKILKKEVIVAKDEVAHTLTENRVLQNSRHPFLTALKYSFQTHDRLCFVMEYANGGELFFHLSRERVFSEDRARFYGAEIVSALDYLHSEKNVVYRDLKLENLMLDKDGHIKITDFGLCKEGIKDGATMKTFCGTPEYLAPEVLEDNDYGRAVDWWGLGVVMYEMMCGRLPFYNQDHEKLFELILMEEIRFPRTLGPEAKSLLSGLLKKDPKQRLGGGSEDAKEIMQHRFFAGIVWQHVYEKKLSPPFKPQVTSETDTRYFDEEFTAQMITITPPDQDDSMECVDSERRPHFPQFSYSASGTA
Method: as §1

Aurora-A(h) = molecular target: T2, Aurora-A(h) (Homo sapiens, UniProt O14965); conditions: for efficiency in targeting Aurora-A(h): 100 μM ATP, lower number = more robust inhibition
T2 sequence (O14965 1-403): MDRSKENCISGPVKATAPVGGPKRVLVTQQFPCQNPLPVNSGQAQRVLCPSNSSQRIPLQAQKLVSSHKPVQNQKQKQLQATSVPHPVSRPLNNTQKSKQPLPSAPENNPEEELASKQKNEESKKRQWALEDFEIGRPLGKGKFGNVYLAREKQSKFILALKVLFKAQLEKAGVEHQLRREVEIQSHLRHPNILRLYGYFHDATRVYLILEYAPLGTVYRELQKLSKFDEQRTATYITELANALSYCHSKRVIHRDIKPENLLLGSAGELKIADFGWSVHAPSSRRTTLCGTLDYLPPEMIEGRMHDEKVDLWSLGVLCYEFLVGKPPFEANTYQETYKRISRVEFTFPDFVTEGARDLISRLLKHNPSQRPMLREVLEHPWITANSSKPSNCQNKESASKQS
Method: as §1

IKKβ(h), sequence (O14920 whole entry): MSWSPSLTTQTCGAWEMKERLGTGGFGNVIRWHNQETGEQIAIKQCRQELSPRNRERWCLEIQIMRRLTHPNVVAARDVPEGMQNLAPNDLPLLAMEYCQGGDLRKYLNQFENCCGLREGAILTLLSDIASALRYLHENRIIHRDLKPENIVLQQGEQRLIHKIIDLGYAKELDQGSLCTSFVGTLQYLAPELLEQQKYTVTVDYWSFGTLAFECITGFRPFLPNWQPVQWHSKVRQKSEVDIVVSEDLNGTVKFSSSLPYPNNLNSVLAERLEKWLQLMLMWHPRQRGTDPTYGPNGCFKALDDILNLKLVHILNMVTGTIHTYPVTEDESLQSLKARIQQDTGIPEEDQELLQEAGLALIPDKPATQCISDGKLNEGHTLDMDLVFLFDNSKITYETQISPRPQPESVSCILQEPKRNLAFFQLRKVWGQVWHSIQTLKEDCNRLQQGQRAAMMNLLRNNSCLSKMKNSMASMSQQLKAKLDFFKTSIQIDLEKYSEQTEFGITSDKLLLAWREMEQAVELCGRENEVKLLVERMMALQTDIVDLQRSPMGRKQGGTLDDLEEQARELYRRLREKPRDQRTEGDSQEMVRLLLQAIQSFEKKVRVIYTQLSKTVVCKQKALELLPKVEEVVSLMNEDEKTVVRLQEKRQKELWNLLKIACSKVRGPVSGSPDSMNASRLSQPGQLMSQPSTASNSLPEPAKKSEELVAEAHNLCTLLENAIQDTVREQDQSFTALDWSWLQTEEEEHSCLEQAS

Nc1nc(Nc2ccc3c(c2)CC[C@@H](N2CCCC2)CC3)nn1-c1cc2c(nn1)-c1ccccc1CCC2 [R428, 1H-1,2,4-Triazole-3,5-diamine, 1-(6,7-dihydro-5H-benzo[6,7]cyclohepta[1,2-c]pyridazin-3-yl) N3-[(7S)-6,7,8,9-tetrahydro-7-(1-pyrrolidinyl)-5H-benzocyclohepten-2-yl]-]
efficiency in targeting IKKβ(h) (IKKβ(h); R428 @ 1 μM): 86
efficiency in targeting IKKβ(h) (IKKβ(h); R428 @ 10 μM): 53
efficiency in targeting Plk3(h) (Plk3(h); R428 @ 1 μM): 101
efficiency in targeting Plk3(h) (Plk3(h); R428 @ 10 μM): 81
efficiency in targeting IRAK4(h) (IRAK4(h); R428 @ 1 μM): 94
efficiency in targeting IRAK4(h) (IRAK4(h); R428 @ 10 μM): 51
efficiency in targeting Flt3(h) (Flt3(h); R428 @ 1 μM): 9
efficiency in targeting Flt3(h) (Flt3(h); R428 @ 10 μM): 1
inhibition of Flt (in words) (Flt3(h); at 1 and 10 μM): potently inhibits
efficiency in targeting PKA(h) (PKA(h); R428 @ 1 μM): 88
efficiency in targeting PKA(h) (PKA(h); R428 @ 10 μM): 35
efficiency in targeting PDGFRβ(h) (PDGFRβ(h); R428 @ 1 μM): 37
efficiency in targeting PDGFRβ(h) (PDGFRβ(h); R428 @ 10 μM): 21
efficiency in targeting ZIPK(h) (ZIPK(h); R428 @ 1 μM): 97
efficiency in targeting ZIPK(h) (ZIPK(h); R428 @ 10 μM): 46
efficiency in targeting ROCK-1(h) (ROCK-1(h); R428 @ 1 μM): 93
efficiency in targeting ROCK-1(h) (ROCK-1(h); R428 @ 10 μM): 41
efficiency in targeting TrkC(h) (TrkC(h); R428 @ 1 μM): 47
efficiency in targeting TrkC(h) (TrkC(h); R428 @ 10 μM): 13
activity at 1 µM (PKBα(h); R428 @ 1 μM): 87%
activity at 10 µM (PKBα(h); R428 @ 10 μM): 57%
efficiency in targeting Aurora-A(h) (Aurora-A(h); R428 @ 1 μM): 20
efficiency in targeting Aurora-A(h) (Aurora-A(h); R428 @ 10 μM): 3
inhibition of AuroraA (in words) (Aurora-A(h); at 1 and 10 μM): potently inhibits
